Measurements from patent US20230321189A1, “THERAPEUTIC AGENTS, PHARMACEUTICAL COMPOSITIONS, AND ASSOCIATED BIOMARKERS BASED ON TRK-B” (INSTITUTO DE MEDICINA MOLECULAR JOÃO LOBO ANTUNES, priority 2020, published 2023).

Legend:
hippocampal synaptosomes = assay: [3H]glutamate release from hippocampal synaptosomes; format: cell-based, rat; conditions: BDNF 30 ng/ml
Protocol: Isolation of Synaptosomes. The synaptosomal fraction from rat hippocampi was prepared as routinely in the lab^3. Hippocampal slices (male Wistar rats, 7-10 weeks old) were prepared and treated with vehicle or Aβ1-42, as described above. Then, slices were added to 5 ml of ice-cold isosmotic sucrose solution (0.32 M, containing 1 mM EDTA, 1 mg/ml BSA, 10 mM HEPES, pH 7.4), and homogenized in a Potter-Elvehjem homogenizer with a Teflon piston (four up-and-down strokes) and the volume completed to 10 ml with the sucrose solution. After a first centrifugation at 3,000 g for 10 min (Heraeus sepatech—Biofuge 28RS centrifuge with 3746 rotor), the supernatant was collected and centrifuged at 14,000 g for 12 min. The whole procedure was conducted at 4° C. The pellet was resuspended in 1 ml 45% Percoll in KHR solution consisting of (in mM) NaCl 140, EDTA 1, HEPES 10, KCl 5, and glucose 5, and centrifuged at 16,000 g for 2 min. The synaptosomal fraction corresponds to the top buoyant layer and was collected from the tube. Percoll was removed by two washes with 1 ml KHR solution centrifuged at 16,000 g for 2 min each; synaptosomes were then kept on ice and used within 3 hours. The synaptosomal protein concentration was assayed using the Bio-Rad DC™ protein assay and BSA as standard.
[^3H]Glutamate Release from Hippocampal Synaptosomes. [3H]Glutamate release from hippocampal synaptosomes was performed as routinely in the lab^39. […]
Calculation of drug effects on glutamate release. At the end of each experiment, aliquots (500 μl) of each sample as well as the filters from each superfusion chamber were analyzed by liquid scintillation counting. The fractional release was expressed as the percentage of total radioactivity present in the synaptosomes at each time point. The amount of radioactivity released by each pulse of K^+ (S1 and S2) was calculated by integration of the area of the peak upon subtraction of the estimated basal tritium release. […]

hippocampal slices = assay: θ-burst Long-Term Potentiation (LTP) in acute hippocampal slices; format: cell-based, rat
From the text: Young adult (7-10 weeks old) male Wistar rats were sacrificed by decapitation under deep isoflurane anaesthesia. The brain was quickly removed, hemisected and both hippocampi were dissected free within ice-cold artificial cerebrospinal fluid (aCSF) (mM: NaCl 124; KCl 3; NaH2PO4 1.25; NaHCO326; MgSO4 1; CaCl2 2; and glucose 10), previously gassed with 95% O2 and 5% CO2, pH 7.4.
Slices (400 μm-thick) were cut perpendicularly to the long axis of the hippocampus with a McIlwain tissue chopper and allowed to recover for at least 60 min in a resting chamber, filled with the gassed aCSF, at room temperature (RT) (22-24° C.).
Hippocampal slices were incubated with vehicle or Aβ1-42 (200 nM) species (monomers, oligomers or fibrils) for 3 h at RT in gassed aCSF. We chose to perform slice incubation at RT, to avoid neuronal damage by hypoxic injury^27.
Slices were transferred to a submerging chamber (1 ml) and continuously superfused at a3 ml/min rate with gassed aCSF at 32° C. Perfusion tubes were coated with 0.1 mg/ml BSA prior to experiments to avoid adsorption of BDNF to the tubes^35. Evoked field excitatory postsynaptic potentials (fEPSP) were recorded extracellularly through a microelectrode filled with 4 M NaCl (2-8 MΩ resistance) placed in the stratum radiatum of the CA1 area, as previously described^34,35. One pathway of the Schaffer collateral/commissural fibers was stimulated (rectangular pulses of 0.1 ms duration) at every 15 s (for V/O curves, basal synaptic transmission and Paired-Pulse Facilitation (PPF) recordings) or every 20 s (for LTP recordings), by a bipolar concentric wire electrode placed on the Schaffer fibers in the stratum radiatum, in the CA1 area. The initial intensity of the stimulus was adjusted to obtain a submaximal fEPSP slope with a minimum population spike contamination, near one-fifth of the fEPSP slope obtained with supramaximal stimulation. The averages of eight consecutive fEPSPs were obtained and the slope of the initial phase of the potential was quantified. Recordings were obtained with an Axoclamp 2B amplifier (Axon Instruments, Foster City, CA), digitized and continuously stored on a personal computer with the LTP program 3. All the protocols detailed below were started only after a stable baseline of at least 20 minutes.
Long-Term Potentiation induction and saturation. A weak LTP-inducing θ-burst protocol consisting of four trains of 100 Hz, four stimuli, separated by 200 ms was used (4×4)^34,37. The intensity of the stimulus was never changed. LTP magnitude was quantified as the normalized change in the average slope of the fEPSP taken from 50 to 60 min after LTP induction in relation to the average slope of the fEPSP measured during the 10 min that preceded the induction of LTP.
For the experiments in FIG. 2, Brain-Derived Neurotrophic Factor (BDNF, 30 ng/ml) was added to the superfusing solution 20 min before the induction of LTP. Controls for these experiments were performed in different slices, without BDNF superfusion, on the same day. Generally, when testing BDNF effect on synaptic plasticity, two independent pathways of the same hippocampal slice are used, one serving as test and the other as internal control^35,38. However, because in the present experimental design slices were previously exposed to vehicle/Aβ for 3 h, we chose to test BDNF effect in different slices from the same rats. […]

Substance | BDNF effect on glutamate release after Aβ1-42 monomeric or fibrillar species (hippocampal synaptosomes; Aβ 200 nM monomers or fibrils, P<0.05) | BDNF effect on glutamate release after Aβ1-42 oligomeric species (hippocampal synaptosomes; Aβ 200 nM oligomers, P>0.05) | glutamate release, control conditions (hippocampal synaptosomes; P<0.01) | LTP magnitude, control conditions (hippocampal slices; BDNF 30 ng/ml) | BDNF effect on LTP after Aβ1-42 monomeric or fibrillar species (hippocampal slices; BDNF 30 ng/ml, Aβ 200 nM monomers or fibrils, P<0.05) | BDNF effect on LTP after Aβ1-42 oligomeric species (hippocampal slices; BDNF 30 ng/ml, Aβ 200 nM oligomers, P>0.05) | effect of exogenous BDNF on LTP in slices exposed to TAT-TrkB and Aβ oligomers (hippocampal slices; BDNF 30 ng/ml, TAT-TrkB 20 μM, Aβ 200 nM, P>0.05) | effect on LTP in slices exposed to Aβ oligomers and TAT-TrkB (hippocampal slices; TrkB-Fc 2 μg/ml superfused from 30 min before LTP induction, TAT-TrkB 20 μM, P<0.05)
BDNF: Brain-derived Neurotrophic Factor, supplied by Regeneron Pharmaceuticals | preserved | impaired | boosted | boosted | preserved | impaired | did not boost LTP further | 
TrkB-Fc: recombinant human TrkB/Fc chimera, BDNF's scavenger [reference compound] |  |  |  |  |  |  |  | counteracts the effect of TAT-TrkB on LTP reestablishment
